Experimental data as given in US20100056536A1, “METHOD OF TREATING ATRIAL FIBRILLATION” (priority 2008, published 2010).

Columns and labels:
[1] = test system: arterially-perfused right atrial preparations; test: Transmembrane action potentials in arterially-perfused right atrial preparations (Example 4); conditions: for action potential duration of pectinate muscle (PM-APD75): untreated 154±11
Excerpt: Floating microelectrode techniques were used to record transmembrane action potentials (BCL=500 ms).

[2] = target: T1, rapidly activating delayed rectifier potassium current (IKr) (Canis lupus familiaris, UniProt Q9TSZ3); conditions: read-out: IC50 for block of IKr; cited from earlier work
T1 sequence (Q9TSZ3 1-1158): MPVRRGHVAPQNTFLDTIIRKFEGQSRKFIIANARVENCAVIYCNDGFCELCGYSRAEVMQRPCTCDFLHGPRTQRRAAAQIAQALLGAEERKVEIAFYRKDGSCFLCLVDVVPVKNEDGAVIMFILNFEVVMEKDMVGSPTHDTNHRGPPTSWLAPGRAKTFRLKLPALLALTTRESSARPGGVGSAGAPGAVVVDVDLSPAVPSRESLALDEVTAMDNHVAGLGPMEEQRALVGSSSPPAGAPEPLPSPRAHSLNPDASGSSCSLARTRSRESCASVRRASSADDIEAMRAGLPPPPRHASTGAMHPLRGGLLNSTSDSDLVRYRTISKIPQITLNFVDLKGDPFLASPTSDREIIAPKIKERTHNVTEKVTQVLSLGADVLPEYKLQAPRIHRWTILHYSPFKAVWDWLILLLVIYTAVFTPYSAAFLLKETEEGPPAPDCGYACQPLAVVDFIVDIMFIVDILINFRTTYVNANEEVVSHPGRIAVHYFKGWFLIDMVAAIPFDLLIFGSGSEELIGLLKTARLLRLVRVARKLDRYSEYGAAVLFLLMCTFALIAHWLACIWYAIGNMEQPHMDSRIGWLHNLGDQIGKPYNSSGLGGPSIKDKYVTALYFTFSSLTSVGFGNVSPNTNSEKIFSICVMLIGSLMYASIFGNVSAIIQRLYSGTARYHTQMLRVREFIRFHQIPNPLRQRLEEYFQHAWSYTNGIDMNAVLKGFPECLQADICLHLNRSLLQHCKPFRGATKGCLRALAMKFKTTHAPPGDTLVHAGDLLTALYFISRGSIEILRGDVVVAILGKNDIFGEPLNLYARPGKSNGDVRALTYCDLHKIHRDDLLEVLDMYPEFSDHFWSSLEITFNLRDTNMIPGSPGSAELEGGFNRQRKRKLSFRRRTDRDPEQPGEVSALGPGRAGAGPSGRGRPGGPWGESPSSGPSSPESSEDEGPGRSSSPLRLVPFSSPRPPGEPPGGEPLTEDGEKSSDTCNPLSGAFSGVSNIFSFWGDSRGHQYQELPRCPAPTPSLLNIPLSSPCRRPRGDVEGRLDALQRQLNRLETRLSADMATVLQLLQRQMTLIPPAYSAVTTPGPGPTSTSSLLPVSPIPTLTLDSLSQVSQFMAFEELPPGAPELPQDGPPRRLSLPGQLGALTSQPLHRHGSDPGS

peak INa = target: T2, peak INa (Canis lupus familiaris, UniProt Q865W3); conditions: canine ventricular myocytes; read-out: IC50 for inhibition of peak INa; cited from earlier work
T2 construct: […]; host or cells: canine ventricular myocytes

[3] = test system: acetylcholine-mediated AF in coronary artery-perfused right atrial preparations; test: Acetylcholine-mediated persistent AF in coronary artery-perfused right atrial preparations; conditions: for Termination of AF (share of preparations): acetylcholine (0.5 μM) persistent AF, ranolazine 10.0 μM, lidocaine 21.0 μM, propafenone 1.5-3.0 μM
[4] = test system: self-terminating AF in atria exposed to ischemia and β-adrenergic agonists; test: AF induced by ischemia and β-adrenergic agonists in atria; format: cell-based, canine; conditions: ranolazine 5-10 μM
Excerpt: Ischemia/reperfusion coupled with iso-proterenol mimics the conditions that prevail during acute myocardial infarction or the substrate encountered postsurgically.

[5] = target: T3, peak sodium channel current (INa) in canine atrial myocytes (Canis lupus familiaris, UniProt Q865W3); test: Whole-cell patch clamp, steady-state inactivation of sodium current in atrial myocytes; format: cell-based; conditions: 15 μM ranolazine, n=5, before drug −86.35±0.19
T3 construct: Whole-cell peak sodium currents were recorded at 37° C. in low-sodium external solution from myocytes isolated; endogenous in cells; host or cells: myocytes isolated from right atrium and left ventricle of adult mongrel dogs
Method: (§1) FIG. 1 presents the voltage dependence of activation and steady-state inactivation of sodium current in canine atrial versus ventricular myocytes. (A) Current-voltage relationship for sodium current in ventricular and atrial myocytes. […] (B) Summarized steady-state inactivation curves. […] Insets show representative atrial and ventricular traces after 1-s conditioning pulses to the indicated potentials. (C) Steady-state inactivation curves before and after addition of 15 μM ranolazine.
(§2) The electrophysiological effects of therapeutic concentrations of ranolazine (1 to 10μmol/L) and lidocaine (2.1 to 21 μmol/L) were evaluated in canine isolated coronary-perfused atrial and ventricular preparations.
(§3) Whole-cell peak sodium currents were recorded at 37° C. in low-sodium external solution from myocytes isolated from the right atrium and left ventricle (LV) of adult mongrel dogs.

[6] = test system: canine superfused PV sleeve preparations; test: Action potential recording in superfused pulmonary vein (PV) sleeve preparations; format: cell-based
Method: Action potentials (AP) were recorded from canine superfused PV sleeves using microelectrode techniques. Acetylcholine (ACh, 1 μM), isoproterenol (Iso, 1 μM), or their combination was used to induce EADs, DADs, and triggered activity.

[7] = test system: ventricular Purkinje fibers and M cell preparations; conditions: paced at a CL of 500 ms; read-out: IC50 for suppression of Vmax; cited from earlier work
[8] = target: T4, peak sodium channel current (INa) in canine ventricular myocytes (Canis lupus familiaris, UniProt Q865W3); test: Whole-cell patch clamp, steady-state inactivation of sodium current in ventricular myocytes; format: cell-based; conditions: 15 μM ranolazine, before drug −72.53±0.16
T4 construct: Whole-cell peak sodium currents were recorded at 37° C. in low-sodium external solution from myocytes isolated; endogenous in cells; host or cells: myocytes isolated from right atrium and left ventricle of adult mongrel dogs
Method: as §1, §2, §3

Purkinje fibers = test: Action potential duration in Purkinje fibers; format: cell-based, canine; conditions: ranolazine 1 to 10 μmol/L
Method: as §2

[9] = test system: canine left ventricular arterially perfused wedge preparations; test: Electrophysiology (APD90, sodium channel-dependent parameters) in arterially perfused ventricular wedge preparations; conditions: for DTE (% Δ) Ventricles, diastolic threshold of excitation: ranolazine 10 μM, lidocaine 21 μM, propafenone 1.5 μM; for effect on APD90 in ventricular myocardium, in words: ranolazine 1 to 10 μmol/L, lidocaine 2.1 to 21 μmol/L
Method: (§4) Experiments were performed using isolated arterially perfused canine right atrial preparations and left ventricular arterially perfused wedge preparations (Antzelevitch et al. Circulation. 2004;110:904-910, Burashnikov et al. Am J Physiol. 2004;286:H2393-H2400., and Burashnikov et al. Circulation. 2003;107:2355-2360.) Therapeutic plasma concentrations of ranolazine (1-10 μM), lidocaine (2.1-21 μM), and propafenone (0.3-3.0 μM) were examined.
(§5) Sodium channel-mediated parameters, such as the maximum rate of rise of the AP upstroke (Vmax), conduction velocity (CV), diastolic threshold of excitation (DTE), and post-repolarization refractoriness (PRR) were evaluated. PRR was defined as the difference between action potential duration (APD) and atrial effective refractory period (ERP).

late INa = target: T5, late INa (Canis lupus familiaris, UniProt Q865W3); conditions: canine ventricular myocytes; read-out: IC50 for inhibition of late INa; cited from earlier work
T5 construct: host or cells: canine ventricular myocytes

[10] = test system: canine isolated coronary artery-perfused right atrial preparations; test: Electrophysiology (APD90, sodium channel-dependent parameters) in isolated coronary artery-perfused atrial preparations; conditions: for effect on action potential duration (APD90) in atria, in words: ranolazine 1 to 10 μmol/L, lidocaine 2.1 to 21 μmol/L
Method: as §4, §5

[11] = acute ranolazine 5 μM in chronic AMIO treated atria, BCL=500 ms
[12] = drug alone: chronic AMIO (40 mg/kg daily for 6 weeks) or acute ranolazine 5 μM in untreated atria, BCL=500 ms
[13] = drug alone: chronic AMIO (40 mg/kg daily for 6 weeks) or acute ranolazine 5 μM in untreated atria, BCL=500 ms, untreated 158±18
[14] = drug alone: chronic Amio (6 weeks, 40 mg/kg daily) PV sleeves, or 10 μM ranolazine in untreated controls, untreated 124 ms

Row | SMILES | action potential duration of pectinate muscle (PM-APD75) [1, 12] [ms] | effective refractory period (ERP) [1, 13] [ms] | Termination of AF (share of preparations) [3] | average CL at which 2:1 activation failure developed [6, 14] [ms] | change (prolongation) of APD90 in ventricles ([9]; CL=500 ms) | DTE (% Δ) Ventricles, diastolic threshold of excitation ([9]; pacing cycle length 0.3 s) [%] | DTE (% Δ) Ventricles, diastolic threshold of excitation ([9]; pacing cycle length 0.5 s) | effect on APD90 in ventricular myocardium, in words [9] | atrial selectivity of depression of sodium channel-dependent parameters (atria versus ventricles), in words [10] | prolongation of APD90 in atria ([10]; CL=500 ms) [%] | effect on action potential duration (APD90) in atria, in words [10] | further results
1 | COc1ccccc1OCC(O)CN1CCN(CC(=O)Nc2c(C)cccc2C)CC1 (racemic) [Ranolazine, (±)-N-(2,6-dimethylphenyl)-4-[2-hydroxy-3-(2-methoxyphenoxy)-propyl]-1-piperazineacetamide] | 159 ± 9 | 190 ± 24 | 66% (4/6) | 190 | +2% | 8 | +3% | no effect | striking atrial selectivity | 11 | prolongation | action potential duration APD75 [1, 11]: 189 ± 9 ms; effective refractory period (ERP) [1, 11]: 258 ± 50 ms; shortest pacing CL permitting 1:1 response ([1]; in presence of acetylcholine (ACh), control 71±12): 94 ± 31 ms; shortest pacing CL permitting a 1:1 response ([1]; without acetylcholine, control 129±8): 234 ± 49 ms; IC50 [2]: 12 µM; IC50 (peak INa): 294 µM; atria in which induction of AF was prevented [4]: 4 of 5; half-inactivation voltage (V0.5) of steady-state inactivation after ranolazine [5]: −91.38±0.35 mV; average CL at which 2:1 activation failure developed ([6]; 5 μM RAN superfused on chronic Amio PV sleeves, n=5): 1350 ms; average CL at which 2:1 activation failure developed ([6]; 10 μM RAN superfused on chronic Amio PV sleeves, n=5): 1660 ms; late phase 3 EAD- and DAD-induced triggered activity ([6]; RAN 5-10 μM added to chronic Amio PV sleeves, Iso and/or ACh, rapid pacing): completely eliminated; IC50 [7]: > 100 µM; half-inactivation voltage (V0.5) of steady-state inactivation after ranolazine [8]: −74.81±0.14 mV; effect on APD90 in Purkinje fibers, in words (Purkinje fibers): abbreviation; IC50 (late INa): 6 µM
2 | CCCCc1oc2ccccc2c1C(=O)c1cc(I)c(OCCN(CC)CC)c(I)c1 [Chronic Amiodarone, amiodarone] | 183 ± 7 | 222 ± 12 | – | 420 | 12% | – | – | – | – | 22 | – | atria in which persistent acetylcholine-mediated AF could be induced ([3]; atria isolated from dogs chronically treated, versus 10 of 10 untreated atria): 1 of 6; maximal rate of rise of AP upstroke (Vmax) ([6]; PV sleeves from dogs treated with chronic Amio (6 weeks, 40 mg/kg daily), CL 1000 ms, untreated controls 314±79): 115±89 V/s
3 | CCN(CC)CC(=O)Nc1c(C)cccc1C [Lidocaine, lidocaine] | – | – | 33% (2/6) | – | – | 40 | +8% | abbreviated | much less atrial-selective than ranolazine or chronic amiodarone | – | abbreviated | abbreviation of APD90 in ventricles ([9]; CL=500 ms): 9%; abbreviation of APD90 in atria ([10]; CL=500 ms): 6%
4 | CCCNCC(O)COc1ccccc1C(=O)CCc1ccccc1 (stereo not shown) [Propafenone, propafenone] | – | – | 100% (7/7) | – | +3% | 125 | +84% | – | – | 13 | – | –
